# Laboratory results as given in patent US20230017045A1, “PYRIDINE AND PYRIMIDINE CARBOXYLATE HERBICIDES AND METHODS OF USE THEREOF” (Dow AgroSciences LLC, priority 2017, published 2023).
# Test system: test plant species
# Test: Post-emergent herbicidal activity test (greenhouse, foliar spray, visual growth reduction)
# Format: in vivo
# Details: post-emergence, 336 h, ALOMY: blackgrass (Alopecurus myosuroides), 140 g ai/ha, 14 days after application, read-out: Visual Growth Reduction (%) 14 Days After Application, ALOMY
# Procedure: Post-emergent Test: Seeds or nutlets of the desired test plant species were planted in Sun Gro Metro-Mix® 360 planting mixture, which typically has a pH of 6.0 to 6.8 and an organic matter content of about 30 percent, in plastic pots with a surface area of 64 square centimeters. In some aspects, to ensure good germination and healthy plants, a fungicide treatment and/or other chemical or physical treatment was applied. The plants were grown for 7-21 d in a greenhouse with an approximate 15 h photoperiod which was maintained at 23-29° C. during the day and 22-28° C. during the night. Nutrients and water were added on a regular basis and supplemental lighting was provided with overhead metal halide 1000-Watt lamps as necessary. Plants were used for testing when they reached the first or second true leaf stage. A weighed amount, determined by the highest rate to be tested, of each test compound was placed in a 25 mL glass vial and was dissolved in 4 mL of a 97:3 v/v mixture of acetone and DMSO to obtain concentrated stock solutions. […] The concentrated stock solutions obtained were diluted with 20 mL of an aqueous mixture containing acetone, water, isopropyl alcohol, DMSO, […] crop oil concentrate, and X-77 surfactant in a 48.5:39:10:1.5:1.0:0.02 v/v ratio to obtain spray solutions containing the application rate. Compound requirements are based upon a 12 mL application volume at a rate of 187 liters per hectare (L/ha). Formulated compounds were applied to the plant material with an overhead Mandel track sprayer equipped with […] nozzles calibrated to deliver 187 L/ha over an application area of 0.64 square meters at a spray height of 18 inches (43 cm) above the average plant canopy height. Control plants were sprayed in the same manner with the solvent blank. The treated plants and control plants were placed in a greenhouse as described above and watered by subirrigation to prevent wash-off of the test compounds. After 14 d, the condition of the test plants as compared with that of the nontreated and control plants was determined visually and scored on a scale of 0 to 100 percent where 0 corresponds to no injury and 100 corresponds to complete control. In the reporting of the results, Table A: Percent Growth Reduction Conversion Table was used.
row,Compound,pest or weed control at 140 g/ha [%]
1,"COC(=O)c1nc(-c2ccc(C(F)(F)F)cc2Cl)ncc1OC [F104, Methyl 2-(2-chloro-4-(trifluoromethyl)phenyl)-5-methoxypyrimidine-4-carboxylate]",0 to 29
2,"COC(=O)c1nc(-c2cnc(C(F)(F)F)cc2Cl)ccc1Cl [F194, Methyl 4′,5-dichloro-6′-(trifluoromethyl)-[2,3′-bipyridine]-6-carboxylate]",0 to 29
3,"O=C(O)c1nc(-c2ccc3occc3c2)c(F)cc1Cl [F198, 6-(Benzofuran-5-yl)-3-chloro-5-fluoropicolinic acid]",0 to 29

# Same assay, conditions: post-emergence, 336 h, AMARE: redroot pigweed (Amaranthus retroflexus), 140 g ai/ha, 14 days after application, read-out: Visual Growth Reduction (%) 14 Days After Application, AMARE
row,Compound,pest or weed control at 140 g/ha [%]
1,"COC(=O)c1nc(-c2ccc(C(F)(F)F)cc2Cl)ncc1OC [F104, Methyl 2-(2-chloro-4-(trifluoromethyl)phenyl)-5-methoxypyrimidine-4-carboxylate]",0 to 29
2,"COC(=O)c1nc(-c2cnc(C(F)(F)F)cc2Cl)ccc1Cl [F194, Methyl 4′,5-dichloro-6′-(trifluoromethyl)-[2,3′-bipyridine]-6-carboxylate]",0 to 29
3,"O=C(O)c1nc(-c2ccc3occc3c2)c(F)cc1Cl [F198, 6-(Benzofuran-5-yl)-3-chloro-5-fluoropicolinic acid]",0 to 29

# Same assay, conditions: post-emergence, 336 h, AVEFA: wild oat (Avena fatua), 140 g ai/ha, 14 days after application, read-out: Visual Growth Reduction (%) 14 Days After Application, AVEFA
row,Compound,pest or weed control at 140 g/ha [%]
1,"COC(=O)c1nc(-c2ccc(C(F)(F)F)cc2Cl)ncc1OC [F104, Methyl 2-(2-chloro-4-(trifluoromethyl)phenyl)-5-methoxypyrimidine-4-carboxylate]",0 to 29
2,"COC(=O)c1nc(-c2cnc(C(F)(F)F)cc2Cl)ccc1Cl [F194, Methyl 4′,5-dichloro-6′-(trifluoromethyl)-[2,3′-bipyridine]-6-carboxylate]",0 to 29
3,"O=C(O)c1nc(-c2ccc3occc3c2)c(F)cc1Cl [F198, 6-(Benzofuran-5-yl)-3-chloro-5-fluoropicolinic acid]",0 to 29

# Same assay, conditions: post-emergence, 336 h, CHEAL: lambsquarters (Chenopodium album), 140 g ai/ha, 14 days after application, read-out: Visual Growth Reduction (%) 14 Days After Application, CHEAL
row,Compound,pest or weed control at 140 g/ha [%]
1,"COC(=O)c1nc(-c2ccc(C(F)(F)F)cc2Cl)ncc1OC [F104, Methyl 2-(2-chloro-4-(trifluoromethyl)phenyl)-5-methoxypyrimidine-4-carboxylate]",0 to 29
2,"COC(=O)c1nc(-c2cnc(C(F)(F)F)cc2Cl)ccc1Cl [F194, Methyl 4′,5-dichloro-6′-(trifluoromethyl)-[2,3′-bipyridine]-6-carboxylate]",30 to 44
3,"O=C(O)c1nc(-c2ccc3occc3c2)c(F)cc1Cl [F198, 6-(Benzofuran-5-yl)-3-chloro-5-fluoropicolinic acid]",0 to 29

# Same assay, conditions: post-emergence, 336 h, CIRAR: canada thistle (Cirsium arvense), 140 g ai/ha, 14 days after application, read-out: Visual Growth Reduction (%) 14 Days After Application, CIRAR
row,Compound,pest or weed control at 140 g/ha [%]
1,"COC(=O)c1nc(-c2ccc(C(F)(F)F)cc2Cl)ncc1OC [F104, Methyl 2-(2-chloro-4-(trifluoromethyl)phenyl)-5-methoxypyrimidine-4-carboxylate]",0 to 29
2,"COC(=O)c1nc(-c2cnc(C(F)(F)F)cc2Cl)ccc1Cl [F194, Methyl 4′,5-dichloro-6′-(trifluoromethyl)-[2,3′-bipyridine]-6-carboxylate]",75 to 84
3,"O=C(O)c1nc(-c2ccc3occc3c2)c(F)cc1Cl [F198, 6-(Benzofuran-5-yl)-3-chloro-5-fluoropicolinic acid]",0 to 29

# Same assay, conditions: post-emergence, 336 h, CYPES: yellow nutsedge (Cyperus esculentus), 140 g ai/ha, 14 days after application, read-out: Visual Growth Reduction (%) 14 Days After Application, CYPES
row,Compound,pest or weed control at 140 g/ha [%]
1,"COC(=O)c1nc(-c2ccc(C(F)(F)F)cc2Cl)ncc1OC [F104, Methyl 2-(2-chloro-4-(trifluoromethyl)phenyl)-5-methoxypyrimidine-4-carboxylate]",0 to 29
2,"COC(=O)c1nc(-c2cnc(C(F)(F)F)cc2Cl)ccc1Cl [F194, Methyl 4′,5-dichloro-6′-(trifluoromethyl)-[2,3′-bipyridine]-6-carboxylate]",0 to 29
3,"O=C(O)c1nc(-c2ccc3occc3c2)c(F)cc1Cl [F198, 6-(Benzofuran-5-yl)-3-chloro-5-fluoropicolinic acid]",0 to 29

# Same assay, conditions: post-emergence, 336 h, DIGSA: crabgrass (Digitaria sanguinalis), 140 g ai/ha, 14 days after application, read-out: Visual Growth Reduction (%) 14 Days After Application, DIGSA
row,Compound,pest or weed control at 140 g/ha [%]
1,"COC(=O)c1nc(-c2ccc(C(F)(F)F)cc2Cl)ncc1OC [F104, Methyl 2-(2-chloro-4-(trifluoromethyl)phenyl)-5-methoxypyrimidine-4-carboxylate]",60 to 74
2,"COC(=O)c1nc(-c2cnc(C(F)(F)F)cc2Cl)ccc1Cl [F194, Methyl 4′,5-dichloro-6′-(trifluoromethyl)-[2,3′-bipyridine]-6-carboxylate]",0 to 29
3,"O=C(O)c1nc(-c2ccc3occc3c2)c(F)cc1Cl [F198, 6-(Benzofuran-5-yl)-3-chloro-5-fluoropicolinic acid]",0 to 29

# Same assay, conditions: post-emergence, 336 h, ECHCG: barnyardgrass (Echinochloa crus-galli), 140 g ai/ha, 14 days after application, read-out: Visual Growth Reduction (%) 14 Days After Application, ECHCG
row,Compound,pest or weed control at 140 g/ha [%]
1,"COC(=O)c1nc(-c2ccc(C(F)(F)F)cc2Cl)ncc1OC [F104, Methyl 2-(2-chloro-4-(trifluoromethyl)phenyl)-5-methoxypyrimidine-4-carboxylate]",0 to 29
2,"COC(=O)c1nc(-c2cnc(C(F)(F)F)cc2Cl)ccc1Cl [F194, Methyl 4′,5-dichloro-6′-(trifluoromethyl)-[2,3′-bipyridine]-6-carboxylate]",45 to 59
3,"O=C(O)c1nc(-c2ccc3occc3c2)c(F)cc1Cl [F198, 6-(Benzofuran-5-yl)-3-chloro-5-fluoropicolinic acid]",0 to 29

# Same assay, conditions: post-emergence, 336 h, IPOHE: ivy-leaf morning glory (Ipomoea hederacea), 140 g ai/ha, 14 days after application, read-out: Visual Growth Reduction (%) 14 Days After Application, IPOHE
row,Compound,pest or weed control at 140 g/ha [%]
1,"COC(=O)c1nc(-c2ccc(C(F)(F)F)cc2Cl)ncc1OC [F104, Methyl 2-(2-chloro-4-(trifluoromethyl)phenyl)-5-methoxypyrimidine-4-carboxylate]",60 to 74
2,"COC(=O)c1nc(-c2cnc(C(F)(F)F)cc2Cl)ccc1Cl [F194, Methyl 4′,5-dichloro-6′-(trifluoromethyl)-[2,3′-bipyridine]-6-carboxylate]",95 to 100
3,"O=C(O)c1nc(-c2ccc3occc3c2)c(F)cc1Cl [F198, 6-(Benzofuran-5-yl)-3-chloro-5-fluoropicolinic acid]",60 to 74

# Same assay, conditions: post-emergence, 336 h, KCHSC: kochia (Bassia scoparia), 140 g ai/ha, 14 days after application, read-out: Visual Growth Reduction (%) 14 Days After Application, KCHSC
row,Compound,pest or weed control at 140 g/ha [%]
1,"COC(=O)c1nc(-c2ccc(C(F)(F)F)cc2Cl)ncc1OC [F104, Methyl 2-(2-chloro-4-(trifluoromethyl)phenyl)-5-methoxypyrimidine-4-carboxylate]",0 to 29
2,"COC(=O)c1nc(-c2cnc(C(F)(F)F)cc2Cl)ccc1Cl [F194, Methyl 4′,5-dichloro-6′-(trifluoromethyl)-[2,3′-bipyridine]-6-carboxylate]",0 to 29
3,"O=C(O)c1nc(-c2ccc3occc3c2)c(F)cc1Cl [F198, 6-(Benzofuran-5-yl)-3-chloro-5-fluoropicolinic acid]",0 to 29

# Same assay, conditions: post-emergence, 336 h, ORYSA: rice (Oryza sativa), 140 g ai/ha, 14 days after application, read-out: Visual Growth Reduction (%) 14 Days After Application, ORYSA
row,Compound,pest or weed control at 140 g/ha [%]
1,"COC(=O)c1nc(-c2ccc(C(F)(F)F)cc2Cl)ncc1OC [F104, Methyl 2-(2-chloro-4-(trifluoromethyl)phenyl)-5-methoxypyrimidine-4-carboxylate]",0 to 29
2,"COC(=O)c1nc(-c2cnc(C(F)(F)F)cc2Cl)ccc1Cl [F194, Methyl 4′,5-dichloro-6′-(trifluoromethyl)-[2,3′-bipyridine]-6-carboxylate]",0 to 29
3,"O=C(O)c1nc(-c2ccc3occc3c2)c(F)cc1Cl [F198, 6-(Benzofuran-5-yl)-3-chloro-5-fluoropicolinic acid]",0 to 29

# Same assay, conditions: post-emergence, 336 h, SETFA: giant foxtail (Setaria faberi), 140 g ai/ha, 14 days after application, read-out: Visual Growth Reduction (%) 14 Days After Application, SETFA
row,Compound,pest or weed control at 140 g/ha [%]
1,"COC(=O)c1nc(-c2ccc(C(F)(F)F)cc2Cl)ncc1OC [F104, Methyl 2-(2-chloro-4-(trifluoromethyl)phenyl)-5-methoxypyrimidine-4-carboxylate]",0 to 29
2,"COC(=O)c1nc(-c2cnc(C(F)(F)F)cc2Cl)ccc1Cl [F194, Methyl 4′,5-dichloro-6′-(trifluoromethyl)-[2,3′-bipyridine]-6-carboxylate]",0 to 29
3,"O=C(O)c1nc(-c2ccc3occc3c2)c(F)cc1Cl [F198, 6-(Benzofuran-5-yl)-3-chloro-5-fluoropicolinic acid]",0 to 29

# Same assay, conditions: post-emergence, 336 h, SORVU: grain sorghum (Sorghum vulgare), 140 g ai/ha, 14 days after application, read-out: Visual Growth Reduction (%) 14 Days After Application, SORVU
row,Compound,pest or weed control at 140 g/ha [%]
1,"COC(=O)c1nc(-c2ccc(C(F)(F)F)cc2Cl)ncc1OC [F104, Methyl 2-(2-chloro-4-(trifluoromethyl)phenyl)-5-methoxypyrimidine-4-carboxylate]",60 to 74
2,"COC(=O)c1nc(-c2cnc(C(F)(F)F)cc2Cl)ccc1Cl [F194, Methyl 4′,5-dichloro-6′-(trifluoromethyl)-[2,3′-bipyridine]-6-carboxylate]",45 to 59
3,"O=C(O)c1nc(-c2ccc3occc3c2)c(F)cc1Cl [F198, 6-(Benzofuran-5-yl)-3-chloro-5-fluoropicolinic acid]",0 to 29

# Same assay, conditions: post-emergence, 336 h, STEME: common chickweed (Stellaria media), 140 g ai/ha, 14 days after application, read-out: Visual Growth Reduction (%) 14 Days After Application, STEME
row,Compound,pest or weed control at 140 g/ha [%]
1,"COC(=O)c1nc(-c2ccc(C(F)(F)F)cc2Cl)ncc1OC [F104, Methyl 2-(2-chloro-4-(trifluoromethyl)phenyl)-5-methoxypyrimidine-4-carboxylate]",0 to 29
2,"COC(=O)c1nc(-c2cnc(C(F)(F)F)cc2Cl)ccc1Cl [F194, Methyl 4′,5-dichloro-6′-(trifluoromethyl)-[2,3′-bipyridine]-6-carboxylate]",0 to 29
3,"O=C(O)c1nc(-c2ccc3occc3c2)c(F)cc1Cl [F198, 6-(Benzofuran-5-yl)-3-chloro-5-fluoropicolinic acid]",0 to 29

# Same assay, conditions: post-emergence, 336 h, TRZAS: wheat, spring (Triticum aestivum), 140 g ai/ha, 14 days after application, read-out: Visual Growth Reduction (%) 14 Days After Application, TRZAS
row,Compound,pest or weed control at 140 g/ha [%]
1,"COC(=O)c1nc(-c2ccc(C(F)(F)F)cc2Cl)ncc1OC [F104, Methyl 2-(2-chloro-4-(trifluoromethyl)phenyl)-5-methoxypyrimidine-4-carboxylate]",0 to 29
2,"COC(=O)c1nc(-c2cnc(C(F)(F)F)cc2Cl)ccc1Cl [F194, Methyl 4′,5-dichloro-6′-(trifluoromethyl)-[2,3′-bipyridine]-6-carboxylate]",0 to 29
3,"O=C(O)c1nc(-c2ccc3occc3c2)c(F)cc1Cl [F198, 6-(Benzofuran-5-yl)-3-chloro-5-fluoropicolinic acid]",0 to 29
